Laboratory results as given in the NIST ThermoML archive (doi:10.1016/j.fluid.2005.06.010).

Experiment: xn = mol fraction of the nth substance listed
Conditions: Fluid (supercritical or subcritical phases), Vibrating tube method

c1ccc2ccccc2c1 [naphthalene] + O=C=O
Conditions | mass density [kg/m3]
318.14 K, 21268 kPa, x1 = 0.0237 | 858.75
318.14 K, 21759 kPa, x1 = 0.0237 | 862.5
318.14 K, 22256 kPa, x1 = 0.0237 | 866.12
318.14 K, 22769 kPa, x1 = 0.0237 | 869.73
318.14 K, 23308 kPa, x1 = 0.0237 | 873.42
318.14 K, 23561 kPa, x1 = 0.0237 | 875.25
323.03 K, 14061 kPa, x1 = 0.0198 | 735.87
323.03 K, 14281 kPa, x1 = 0.0198 | 740.33
323.03 K, 14482 kPa, x1 = 0.0198 | 744.21
323.03 K, 15014 kPa, x1 = 0.0198 | 753.86
323.03 K, 16032 kPa, x1 = 0.0198 | 770.24
323.03 K, 17031 kPa, x1 = 0.0198 | 784.26
323.03 K, 18075 kPa, x1 = 0.0198 | 797.2
323.03 K, 19028 kPa, x1 = 0.0198 | 807.85
323.03 K, 20080 kPa, x1 = 0.0198 | 818.58
323.03 K, 21050 kPa, x1 = 0.0198 | 827.65
323.03 K, 22246 kPa, x1 = 0.0198 | 838
323.03 K, 24029 kPa, x1 = 0.0198 | 851.96
323.03 K, 24780 kPa, x1 = 0.0198 | 857.36
323.06 K, 16579 kPa, x1 = 0.0276 | 788.12
323.06 K, 16788 kPa, x1 = 0.0276 | 790.83
323.06 K, 17004 kPa, x1 = 0.0276 | 793.51
323.06 K, 17203 kPa, x1 = 0.0276 | 795.99
323.06 K, 17382 kPa, x1 = 0.0276 | 798.16
323.06 K, 17590 kPa, x1 = 0.0276 | 800.59
323.06 K, 17798 kPa, x1 = 0.0276 | 803
323.06 K, 18018 kPa, x1 = 0.0276 | 805.49
323.06 K, 18224 kPa, x1 = 0.0276 | 807.76
323.06 K, 18490 kPa, x1 = 0.0276 | 810.6
323.06 K, 18694 kPa, x1 = 0.0276 | 812.78
323.06 K, 19009 kPa, x1 = 0.0276 | 816
323.06 K, 19476 kPa, x1 = 0.0276 | 820.59
323.06 K, 19995 kPa, x1 = 0.0276 | 825.42
323.06 K, 21006 kPa, x1 = 0.0276 | 834.34
323.06 K, 22002 kPa, x1 = 0.0276 | 842.55
323.06 K, 22987 kPa, x1 = 0.0276 | 850.05
323.06 K, 24002 kPa, x1 = 0.0276 | 857.32
323.06 K, 24701 kPa, x1 = 0.0276 | 862.06
323.07 K, 10356 kPa, x1 = 0.0049 | 477.23
323.07 K, 10584 kPa, x1 = 0.0049 | 504.85
323.07 K, 11014 kPa, x1 = 0.0049 | 548.62
323.07 K, 11189 kPa, x1 = 0.0093 | 594.87
323.07 K, 11528 kPa, x1 = 0.0093 | 616.57
323.07 K, 12026 kPa, x1 = 0.0093 | 642.38
323.07 K, 12054 kPa, x1 = 0.0049 | 619.66
323.07 K, 12157 kPa, x1 = 0.0144 | 663.68
323.07 K, 12308 kPa, x1 = 0.0144 | 669.44
323.07 K, 12400 kPa, x1 = 0.0144 | 672.76
323.07 K, 12573 kPa, x1 = 0.0144 | 678.74
323.07 K, 12986 kPa, x1 = 0.0144 | 691.87
323.07 K, 12997 kPa, x1 = 0.0049 | 660.38
323.07 K, 13031 kPa, x1 = 0.0093 | 680.85
323.07 K, 13495 kPa, x1 = 0.0144 | 706.09
323.07 K, 14001 kPa, x1 = 0.0093 | 708.22
323.07 K, 14001 kPa, x1 = 0.0144 | 718.59
323.07 K, 14013 kPa, x1 = 0.0049 | 692.38
323.07 K, 14975 kPa, x1 = 0.0093 | 730.03
323.07 K, 15034 kPa, x1 = 0.0049 | 717.29
323.07 K, 15051 kPa, x1 = 0.0144 | 740.61
323.07 K, 15260 kPa, x1 = 0.0235 | 764.21
323.07 K, 15541 kPa, x1 = 0.0235 | 768.75
323.07 K, 15987 kPa, x1 = 0.0049 | 736.48
323.07 K, 15999 kPa, x1 = 0.0144 | 757.24
323.07 K, 16027 kPa, x1 = 0.0235 | 776.04
323.07 K, 16061 kPa, x1 = 0.0093 | 750.23
323.07 K, 16993 kPa, x1 = 0.0093 | 765.16
323.07 K, 17000 kPa, x1 = 0.0144 | 772.5
323.07 K, 17006 kPa, x1 = 0.0049 | 753.98
323.07 K, 17013 kPa, x1 = 0.0235 | 790.56
323.07 K, 18007 kPa, x1 = 0.0235 | 801.9
323.07 K, 18016 kPa, x1 = 0.0049 | 769.15
323.07 K, 18016 kPa, x1 = 0.0144 | 786.14
323.07 K, 18045 kPa, x1 = 0.0093 | 779.85
323.07 K, 18986 kPa, x1 = 0.0049 | 782.09
323.07 K, 18996 kPa, x1 = 0.0144 | 797.91
323.07 K, 19008 kPa, x1 = 0.0235 | 812.85
323.07 K, 19015 kPa, x1 = 0.0093 | 791.95
323.07 K, 19996 kPa, x1 = 0.0093 | 803.09
323.07 K, 20004 kPa, x1 = 0.0049 | 794.32
323.07 K, 20013 kPa, x1 = 0.0144 | 809.02
323.07 K, 20026 kPa, x1 = 0.0235 | 822.87
323.07 K, 20987 kPa, x1 = 0.0049 | 805.12
323.07 K, 20996 kPa, x1 = 0.0235 | 831.78
323.07 K, 21016 kPa, x1 = 0.0093 | 813.7
323.07 K, 21017 kPa, x1 = 0.0144 | 819.02
